This experiment relates to P388 leukemia ip, CD2F1 mice, survival T/C. Briefly: NCI In Vivo Anticancer Drug Screen. Data for tumor model P388 Leukemia (intraperitoneal) in CD2F1 (CDF1) mice. The conditions noted are these: endpoint: median survival time, higher = longer survival. The protocol: The antitumor activity of compounds was measured in mice bearing transplantable tumors. Survival or tumor size were measured and the results are expressed as the measurement made in the treated group (T) divided by the measurement made in the vehicle treated control group (C). The tumor model used in this assay is P388 Leukemia (intraperitoneal) in CD2F1 (CDF1) mice

[1] abbreviates: dose: 100.0 mg/kg/injection, schedule: Q01DX009 (ip), vehicle: saline with Tween-80.
Where [2] appears, read: dose: 50.0 mg/kg/injection, schedule: Q01DX009 (ip), vehicle: saline with Tween-80.
[3] abbreviates: dose: 60.0 mg/kg/injection, schedule: Q01DX005 (ip), vehicle: saline with Tween-80.
The mark [4] stands for this setting: dose: 120.0 mg/kg/injection, schedule: Q01DX005 (ip), vehicle: saline with Tween-80.
Where [5] appears, read: dose: 240.0 mg/kg/injection, schedule: Q01DX005 (ip), vehicle: saline with Tween-80.

Values joined by “and” are separate entries in the source; they are usually repeats but may differ in a detail not shown here. Equal entries are not always repeated. Toxic doses and inconclusive results are not listed.

For the compound `COc1ccc2c(c1O)-c1cc(O)cc3c1C(C2)NCC3` (stereo not given), the T/C is, setting by setting: (dose: 0.32 mg/kg/injection, schedule: Q04DX003 (ip), vehicle: DMSO) 98 % of control; (dose: 0.63 mg/kg/injection, schedule: Q04DX003 (ip), vehicle: DMSO) 95 % of control; (dose: 1.25 mg/kg/injection, schedule: Q04DX003 (ip), vehicle: DMSO) 99 % of control; (dose: 2.5 mg/kg/injection, schedule: Q04DX003 (ip), vehicle: DMSO) 98 % of control; (dose: 5.0 mg/kg/injection, schedule: Q04DX003 (ip), vehicle: DMSO) 100 % of control.

Consider `Cc1ccc2c(ccc3c[n+]4ccccc4c(C)c32)c1`, for which the T/C is, setting by setting: (dose: 2.2 mg/kg/injection, schedule: Q01DX009 (ip), vehicle: saline with Tween-80) 122 % of control; (dose: 3.3 mg/kg/injection, schedule: Q01DX009 (ip), vehicle: saline with Tween-80) 114 % of control; (dose: 5.0 mg/kg/injection, schedule: Q01DX009 (ip), vehicle: saline with Tween-80) 122 % of control; (dose: 6.25 mg/kg/injection, schedule: Q04DX003 (ip), vehicle: other) 112 % of control; (dose: 7.5 mg/kg/injection, schedule: Q01DX009 (ip), vehicle: saline with Tween-80) 120 % of control; (dose: 12.5 mg/kg/injection, schedule: Q04DX003 (ip), vehicle: other) 112 % of control. Moreover, the T/C (dose: 25.0 mg/kg/injection, schedule: Q04DX003 (ip), vehicle: other) is 108 % of control.

In the case of `COC(=O)c1cccc(COc2ccc([N+](=O)[O-])cc2Cl)c1`, the T/C reads like this: under setting [1], 100 % of control; (dose: 200.0 mg/kg/injection, schedule: Q01DX009 (ip), vehicle: saline with Tween-80) 100 % of control; (dose: 400.0 mg/kg/injection, schedule: Q01DX009 (ip), vehicle: saline with Tween-80) 110 % of control.

Turning to `O=c1[nH]cnc2[nH]ncc12`, the T/C by setting is: (dose: 20.0 mg/kg/injection, schedule: Q01DX005 (ip), vehicle: saline with Tween-80) 104 % of control; (dose: 40.0 mg/kg/injection, schedule: Q01DX005 (ip), vehicle: saline with Tween-80) 110 % of control; (dose: 50.0 mg/kg/injection, schedule: Q01DX009 (ip), vehicle: saline sonified) 95 % of control; under setting [2], 95 % of control; (dose: 50.0 mg/kg/injection, schedule: Q04DX003 (ip), vehicle: saline sonified) 109 % of control; (dose: 50.0 mg/kg/injection, schedule: Q04DX003 (ip), vehicle: saline with Tween-80) 90 % of control. For the same compound, the T/C reads like this: (dose: 80.0 mg/kg/injection, schedule: Q01DX005 (ip), vehicle: saline with Tween-80) 106 % of control; (dose: 100.0 mg/kg/injection, schedule: Q01DX009 (ip), vehicle: saline sonified) 100 % of control; under setting [1], 95 % of control; (dose: 100.0 mg/kg/injection, schedule: Q04DX003 (ip), vehicle: saline sonified) 95 % of control; (dose: 100.0 mg/kg/injection, schedule: Q04DX003 (ip), vehicle: saline with Tween-80) 95 % of control; (dose: 160.0 mg/kg/injection, schedule: Q01DX005 (ip), vehicle: saline with Tween-80) 104 % of control. The T/C reads like this: (dose: 200.0 mg/kg/injection, schedule: Q01DX009 (ip), vehicle: saline sonified) 100 % of control; (dose: 200.0 mg/kg/injection, schedule: Q04DX003 (ip), vehicle: saline sonified) 113 % of control; (dose: 200.0 mg/kg/injection, schedule: Q04DX003 (ip), vehicle: saline with Tween-80) 104 % of control.

For the compound `C#CO[C@@H]1C[C@H](C)CCC1C(C)C` (stereo not given in full), the T/C under setting [3] was 100 % of control and the T/C under setting [4] was 106 % of control.

As for `CN(C)c1ccc2c(NCCCCCCNc3ccnc4cc(N(C)C)ccc34)ccnc2c1`, the T/C (dose: 1.56 mg/kg/injection, schedule: Q01DX009 (ip), vehicle: distilled water + alcohol) was 116 % of control; the T/C (dose: 6.25 mg/kg/injection, schedule: Q01DX009 (ip), vehicle: distilled water + alcohol) is 120 % of control; the T/C (dose: 12.5 mg/kg/injection, schedule: Q01DX009 (ip), vehicle: distilled water + alcohol) is 150 % of control and 152 % of control; the T/C (dose: 25.0 mg/kg/injection, schedule: Q01DX009 (ip), vehicle: distilled water + Tween-80 + alcohol) is 174 % of control; the T/C (dose: 50.0 mg/kg/injection, schedule: Q01DX009 (ip), vehicle: distilled water + alcohol) was 168 % of control.

In the case of `O=c1cc(-c2ccccc2)c2ccc(O)c(CN(CCO)CCO)c2o1`, the T/C is, setting by setting: (dose: 100.0 mg/kg/injection, schedule: Q04DX002 (ip), vehicle: saline with Tween-80) 89 % of control; (dose: 200.0 mg/kg/injection, schedule: Q04DX002 (ip), vehicle: saline with Tween-80) 89 % of control.

Consider `COc1ccc(C(=O)C(C)Oc2ccccc2OC)cc1OC` (stereo not given), for which the T/C reads like this: (dose: 10.0 mg/kg/injection, schedule: Q01DX005 (ip), vehicle: Klucel (hydroxypropylcellulose) (HPC)) 99 % of control; (dose: 20.0 mg/kg/injection, schedule: Q01DX005 (ip), vehicle: Klucel (hydroxypropylcellulose) (HPC)) 100 % of control; (dose: 40.0 mg/kg/injection, schedule: Q01DX005 (ip), vehicle: Klucel (hydroxypropylcellulose) (HPC)) 101 % of control.

Regarding `CC(C)(C)c1ccc(-c2cc3nc(-c4ccccc4)cc(=O)n3[nH]2)cc1`, the T/C is, setting by setting: under setting [3], 100 % of control; under setting [4], 98 % of control; under setting [5], 98 % of control.

With `COC1/C=C/OC2(C)Oc3c(C)c(O)c4c(O)c(c(/C=N/N5C(C)CN(Cc6ccc(C(C)(C)C)cc6)CC5C)c(O)c4c3C2=O)NC(=O)/C(C)=C\C=C\C(C)C(O)C(C)C(O)C(C)C(OC(C)=O)C1C` (stereo not given), the T/C reads like this: (dose: 25.0 mg/kg/injection, schedule: Q01DX009 (ip), vehicle: saline with Tween-80) 119 % of control; (dose: 25.0 mg/kg/injection, schedule: Q01DX009 (ip), vehicle: suspension in saline) 104 % of control; under setting [2], 102 % of control and 94 % of control; (dose: 50.0 mg/kg/injection, schedule: Q01DX009 (ip), vehicle: suspension in saline) 108 % of control; under setting [1], 119 % of control; (dose: 100.0 mg/kg/injection, schedule: Q01DX009 (ip), vehicle: suspension in saline) 100 % of control. In addition, under “dose: 200.0 mg/kg/injection, schedule: Q01DX009 (ip), vehicle: suspension in saline”, the T/C was 95 % of control.

Turning to `Cc1ccccc1-[n+]1noc(N)n1`, the T/C was 101 % of control (dose: 3.13 mg/kg/injection, schedule: Q01DX009 (ip), vehicle: water); 113 % of control (dose: 6.25 mg/kg/injection, schedule: Q01DX009 (ip), vehicle: water); 120 % of control (dose: 12.5 mg/kg/injection, schedule: Q01DX009 (ip), vehicle: water); 106 % of control (dose: 14.7 mg/kg/injection, schedule: Q01DX009 (ip), vehicle: water).

For `NC(=O)NC(=O)C(Cc1ccc(Cl)cc1)c1ccccc1` (stereo not given), the T/C reads like this: (dose: 30.0 mg/kg/injection, schedule: Q01DX005 (ip), vehicle: saline with Tween-80) 96 % of control and 97 % of control; under setting [3], 89 % of control and 94 % of control; under setting [4], 87 % of control and 89 % of control; under setting [5], 88 % of control.

Take `OC1(c2ccccc2)C2CC1C2` (stereo not given): the T/C (dose: 100.0 mg/kg/injection, schedule: Q04DX002 (ip), vehicle: saline) is 104 % of control; the T/C (dose: 200.0 mg/kg/injection, schedule: Q04DX002 (ip), vehicle: saline) was 101 % of control; the T/C (dose: 400.0 mg/kg/injection, schedule: Q04DX002 (ip), vehicle: saline) is 102 % of control.

Turning to `CCCCCCCSc1nc2ccc(N=Cc3ccccc3O)cc2s1`, the T/C is, setting by setting: (dose: 50.0 mg/kg/injection, schedule: Q01DX009 (ip), vehicle: Klucel (hydroxypropylcellulose) (HPC)) 93 % of control; (dose: 100.0 mg/kg/injection, schedule: Q01DX009 (ip), vehicle: Klucel (hydroxypropylcellulose) (HPC)) 103 % of control; (dose: 200.0 mg/kg/injection, schedule: Q01DX009 (ip), vehicle: Klucel (hydroxypropylcellulose) (HPC)) 103 % of control.

With `COc1cc(Cc2nnc(N)nc2N)cc(OC)c1OC`, the T/C (dose: 100.0 mg/kg/injection, schedule: Q01DX001 (ip), vehicle: Klucel (hydroxypropylcellulose) (HPC)) was 100 % of control; the T/C (dose: 200.0 mg/kg/injection, schedule: Q01DX001 (ip), vehicle: Klucel (hydroxypropylcellulose) (HPC)) was 114 % of control; the T/C (dose: 400.0 mg/kg/injection, schedule: Q01DX001 (ip), vehicle: Klucel (hydroxypropylcellulose) (HPC)) was 96 % of control.

As to `CCOC(=O)c1sc(N)c(C(=O)OCC)c1C`, the T/C under setting [1] was 86 % of control.
